Patent US20140249139A1, “Quinazoline Derivatives” (NOVARTIS AG, priority 2011, published 2014)

Test system: murine B cells
Test: Murine B cell activation: CD86 expression on CD19 positive B cells after anti-IgM stimulation
Type: cell-based
Settings: Balb/c mouse splenocytes, anti-IgM 30 μg/ml, 24 hours, read-out: mCD86/ IC50 CD86
Method: PI3Kδ has been recognized to modulate B cell function when cells are stimulated through the B cell receptor (BCR) (Okkenhaug et al. Science 297:1031 (2002). For assessing the inhibitory property of compounds on B cell activation, the upregulation of activation markers CD86 and CD69 on murine B cells derived from mouse spleen […] is measured after stimulation with anti-IgM. CD69 is a well known activation marker for B and T cells (Sancho et al. Trends Immunol. 26:136 (2005). CD86 (also known as B7-2) is primarily expressed on antigen-presenting cells, including B cells. Resting B cells express CD86 at low levels, but upregulate it following stimulation of e.g. the BCR or IL-4 receptor. CD86 on a B cell interacts with CD28 on T cells. This interaction is required for optimal T cell activation and for the generation of an optimal IgG1 response (Carreno et al. Annu Rev Immunol. 20:29 (2002)).
Spleens from Balb/c mice were collected, splenocytes were isolated and washed twice with RPMI containing 10% foetal bovine serum (FBS), 10 mM HEPES, 100 Units/ml penicilline/streptomycine. RPMI supplemented in this way is subsequently referred to as medium. The cells were adjusted to 2.5×10^6 cells/ml in medium and 200 μl cell suspension ([…]) were added to the appropriate wells of 96 well plates.
Then the cells were stimulated by adding 50 μl anti-IgM mAb in medium (final concentration: 30 μg/ml). After incubation for 24 hours at 37° C., the cells were stained with the following antibody cocktails: anti-mouse CD86-FITC, anti-mouse CD69-PerCP-Cy5.5, anti-mouse CD19-PerCP for the assessment of B cells, and anti-mouse CD3-FITC, anti-mouse CD69-PE for the assessment of T cells (2 μl of each antibody/well). After one hour at room temperature (RT) in the dark the cells were transferred to 96 Deepwell plates. The cells were washed once with 1 ml PBS containing 2% FBS and after re-suspension in 200 μl the samples were analyzed on a FACS Calibur flow cytometer. Lymphocytes were gated in the FSC/SSC dot plot according to size and granularity and further analyzed for expression of CD19, CD3 and activation markers (CD86, CD69). Data were calculated from dot blots as percentage of cells positively stained for activation markers within the CD19+ or CD3+ population using BD CellQest Software.
For assessing the inhibitory property of compounds, compounds were first dissolved and diluted in DMSO followed by a 1:50 dilution in medium. Splenocytes from Balb/c mice were isolated, re-suspended and transfered to 96 well plates as described above (200 μl/well). The diluted compounds or solvent were added to the plates (25 μl) and incubated at 37° C. for 1 hour. Then the cultures were stimulated with 25 μl anti-IgM mAb/well (final concentration 30 μg/ml) for 24 hours at 37° C. and stained with anti-mouse CD86-FITC and anti-mouse CD19-PerCP (2 μl of each antibody/well). CD86 expression on CD19 positive B cells was quantified by flow cytometry as described above.

Point of comparison: `CNc1ncc(-c2ccc3ncnc(-c4cncc(C(=O)N5CCN(C)CC5)c4)c3c2)cc1C` [Example 75, {5-[6-(5-Methyl-6-methylamino-pyridin-3-yl)-quinazolin-4-yl]-pyridin-3-yl}-(4-methyl-piperazin-1-yl)-methanone], IC50 54 nM. Against it:
- COc1ncc(-c2ccc3ncnc(-c4cccc(C(=O)N5CCN(C)CC5)c4)c3c2)cn1 [Example 2] — within 1.5-fold, 69.5 nM
- COc1ccc(-c2ccc3ncnc(-c4ccc(C)c(C(=O)N5CC6CC5CN6C)c4)c3c2)cn1 (stereo not shown) [Example 117] — 1.9-fold higher, 101 nM
- COc1ccc(-c2ccc3ncnc(-c4cc(F)cc(C(=O)N5CCN(C(C)=O)CC5)c4)c3c2)cn1 [Example 110, 1-(4-{3-Fluoro-5-[6-(6-methoxy-pyridin-3-yl)-quinazolin-4-yl]-benzoyl}-piperazin-1-yl)-ethanone] — 2.9-fold higher, 155 nM
- COc1ccc(-c2ccc3ncnc(-c4cccc(C(=O)N5CCN(C(C)=O)CC5)c4)c3c2)cc1S(=O)(=O)N1CCCC1 [Example 7] — 2.7-fold lower, 20.1 nM
- COc1ccc(-c2ccc3ncnc(-c4cccc(C(=O)N5C[C@@H]6C[C@H]5CN6C)c4)c3c2)cn1 [Example 91, {3-[6-(6-Methoxy-pyridin-3-yl)-quinazolin-4-yl]-phenyl}-((1S,4S)-5-methyl-2,5-diaza-bicyclo[2.2.1]hept-2-yl)-methanone] — within 1.5-fold, 44 nM
- COc1ccc(-c2ccc3ncnc(-c4cncc(C(=O)N5CCNC(C)(C)C5)c4)c3c2)cc1C(F)(F)F [Example 81, (3,3-Dimethyl-piperazin-1-yl)-{5-[6-(4-methoxy-3-trifluoromethyl-phenyl)-quinazolin-4-yl]-pyridin-3-yl}-methanone] — within 1.5-fold, 79 nM
